Targets include HLA-DRB1*0404 (Homo sapiens, UniProt P01903+P01911, A100R/A169T/F76Y/I96L/K127E/L162R/M171V/N62H/P40V/Q125Y/R42H/S133A/S149N/S66Y/V209L/W38E); HLA-DRB5*0101 (Homo sapiens, UniProt P01903+Q30154); HLA-DRB1*0301 (Homo sapiens, UniProt P01903+P01911, A100K/A102G/A103R/A169T/F55Y/I96L/K41T/L162R/M171V/P40S/Q125H/Q178H/Q39Y/R42S/S66N/T106N/T262R/W38E/Y61H); HLA-DRB1*1501 (Homo sapiens, UniProt P01903+P01911); HLA-DRB1*0101 (Homo sapiens, UniProt P01903+P01911, A100R/D57E/F55L/F60I/F76Y/I96L/L162R/M171V/P40L/Q125E/R42F/V115G/Y59C); HLA-DRB1*0401 (Homo sapiens, UniProt P01903+P01911, A100K/A169T/F76Y/I96L/K127E/L162R/M171V/N62H/P40V/Q125Y/R42H/S133A/S149N/S66Y/V115G/V209L/W38E); HLA-DRB1*0405 (Homo sapiens, UniProt P01903+P01911, A100R/A169T/D86S/F76Y/I96L/K127E/L162R/M171V/N62H/P40V/Q125Y/R42H/S133A/S149N/S66Y/V115G/V209L/W38E); HLA-DRB1*0701 (Homo sapiens, UniProt P01903+P01911, A100R/A102G/A103Q/D57E/D86V/E43K/F76Y/K127E/L162R/M171V/P40G/Q125H/Q99D/R33Q/R42Y/R54Q/S133A/S66F/T210M/V115G/Y107V/Y59L/Y89S); HLA-DRB1*0802 (Homo sapiens, UniProt P01903+P01911, A100R/A103L/A169T/F76Y/H45Y/I96F/K41T/L162R/M171V/P40S/Q125H/Q178H/Q39Y/Q99D/R218S/R42G/S66Y/V115G/W38E); HLA-DRB1*0901 (Homo sapiens, UniProt P01903+P01911, A100R/A103E/D57H/D86V/F55Y/F60I/F76Y/I96F/K127E/L162R/M171V/P40D/Q125H/Q99R/R33Q/R42F/S133A/S66N/T210M/V115G/W38K/Y107V/Y59G/Y89S); HLA-DRB1*1101 (Homo sapiens, UniProt P01903+P01911, A100R/A169T/A87E/I96F/K41T/L162R/M171V/P40S/Q125H/Q178H/Q39Y/Q99D/R42S/S66Y/T262R/V115G/W38E); HLA-DRB1*1302 (Homo sapiens, UniProt P01903+P01911, A100E/A169T/K41T/L162R/M171V/P40S/Q125H/Q178H/Q39Y/Q99D/R42S/S66N/T262R/V115G/W38E/Y61H); HLA-DRB4*0101 (Homo sapiens, UniProt P01903+P13762, G164S).

What all share (experiment): biochemical
What all share (assay type): binding

Results on seven molecules are retold here after PMC3364000 (Vaccine, 2009).

The structures appear in SMILES notation. Peptide text beside a SMILES is read from it.

HLA-DRB1*0301, sequence (P01903 26-254, other chains not shown): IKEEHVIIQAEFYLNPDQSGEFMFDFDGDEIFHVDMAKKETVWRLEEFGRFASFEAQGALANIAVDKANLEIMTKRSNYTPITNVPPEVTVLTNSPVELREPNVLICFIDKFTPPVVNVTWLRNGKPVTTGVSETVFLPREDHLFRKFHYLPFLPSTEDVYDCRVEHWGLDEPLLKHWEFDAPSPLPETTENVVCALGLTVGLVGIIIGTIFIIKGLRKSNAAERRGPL
HLA-DRB1*1302, sequence (P01903 26-254 limits assumed, other chains not shown): as the sequence (P01903 26-254, other chains not shown) above
HLA-DRB1*1101, sequence (P01903 26-254 limits assumed, other chains not shown): as the sequence (P01903 26-254, other chains not shown) above

As for `CC[C@H](C)[C@H](NC(=O)[C@H](CO)NC(=O)[C@H](CC(N)=O)NC(=O)[C@@H](N)CCC(N)=O)C(=O)N[C@H](C(=O)N[C@H](C(=O)N[C@@H](CCC(=O)O)C(=O)N[C@@H](CCCNC(=N)N)C(=O)N[C@@H](CCSC)C(=O)N[C@H](C(=O)N[C@@H](CC(C)C)C(=O)N[C@@H](CO)C(=O)N[C@@H](C)C(=O)N[C@@H](Cc1ccccc1)C(=O)N[C@@H](CC(=O)O)C(=O)O)C(C)C)[C@@H](C)CC)[C@@H](C)O` [NP.58], the IC50 on HLA-DRB1*0404 was 188 nM; at HLA-DRB5*0101, above 10000 nM.
With `CC[C@H](C)[C@H](NC(=O)CNC(=O)[C@@H](NC(=O)[C@@H](NC(=O)[C@H](CO)NC(=O)[C@H](C)NC(=O)[C@H](C)NC(=O)[C@@H](NC(=O)[C@@H](NC(=O)[C@H](CC(C)C)NC(=O)[C@@H]1CCCN1C(=O)[C@@H](N)CC(=O)O)C(C)C)C(C)C)[C@@H](C)CC)[C@@H](C)CC)C(=O)N[C@@H](CC(C)C)C(=O)N[C@@H](Cc1c[nH]cn1)C(=O)N[C@@H](CC(C)C)C(=O)O` [M2.24], the IC50 on HLA-DRB1*0301 and at HLA-DRB5*0101 was above 10000 nM each time.
Take `CC[C@H](C)[C@H](NC(=O)[C@H](CCC(N)=O)NC(=O)[C@H](CCC(=O)O)NC(=O)[C@@H](N)Cc1ccccc1)C(=O)N[C@H](C(=O)N[C@@H](Cc1ccccc1)C(=O)N[C@@H](CCSC)C(=O)N[C@@H](CCC(N)=O)C(=O)N[C@@H](C)C(=O)N[C@@H](CC(C)C)C(=O)N[C@@H](CCC(N)=O)C(=O)N[C@@H](CC(C)C)C(=O)N[C@@H](CC(C)C)C(=O)N[C@@H](CC(C)C)C(=O)N[C@@H](CCC(=O)O)C(=O)O)[C@@H](C)O` [NS2.94]: the IC50 against HLA-DRB1*1501 stood at 10 nM. This counts as double-digit nanomolar.
For the molecule `CC[C@H](C)[C@H](NC(=O)[C@H](CCCCN)NC(=O)[C@H](CC(N)=O)NC(=O)[C@H](C)NC(=O)[C@H](CCCCN)NC(=O)[C@H](CCC(=O)O)NC(=O)[C@H](CC(C)C)NC(=O)[C@H](Cc1ccc(O)cc1)NC(=O)[C@H](Cc1ccc(O)cc1)NC(=O)[C@@H](NC(=O)[C@H](Cc1c[nH]cn1)NC(=O)[C@@H](NC(=O)[C@H](CCC(=O)O)NC(=O)[C@H](CCCNC(=N)N)NC(=O)[C@@H](N)CCCNC(=N)N)C(C)C)[C@@H](C)CC)C(=O)O` [PA.124], the IC50 against HLA-DRB1*0301 was above 10000 nM; against HLA-DRB1*1501, 4 nM.
As to `CC[C@H](C)[C@H](NC(=O)[C@H](C)NC(=O)CNC(=O)[C@@H](N)CCC(=O)O)C(=O)N[C@H](C(=O)NCC(=O)N[C@@H](CCC(=O)O)C(=O)N[C@H](C(=O)N[C@@H](CO)C(=O)N1CCC[C@H]1C(=O)N[C@@H](CC(C)C)C(=O)N1CCC[C@H]1C(=O)N[C@@H](CO)C(=O)N[C@@H](CC(C)C)C(=O)N1CCC[C@H]1C(=O)NCC(=O)N[C@@H](Cc1c[nH]cn1)C(=O)N[C@H](C(=O)N[C@@H](CC(=O)O)C(=O)O)[C@@H](C)O)[C@@H](C)CC)C(C)C` [NS1.153], the IC50 at HLA-DRB1*0101 is 64 nM; against HLA-DRB1*0301, 8330 nM; at HLA-DRB1*0401 it was 14 nM; on HLA-DRB1*0404, 6 nM; against HLA-DRB1*0405, 98 nM; at HLA-DRB1*0701, above 10000 nM. The half-maximal inhibitory concentration (IC50) on HLA-DRB1*0802 was 227 nM; against HLA-DRB1*0901 it was 6360 nM; against HLA-DRB1*1101, 88 nM; against HLA-DRB1*1302, 1770 nM; against HLA-DRB1*1501 it was 7 nM; at HLA-DRB4*0101 it was 131 nM. On HLA-DRB5*0101, this molecule displayed a 50% inhibitory concentration (IC50) of 1140 nM.
Regarding `CSCC[C@H](NC(=O)[C@H](Cc1c[nH]c2ccccc12)NC(=O)[C@@H](NC(=O)[C@H](CC(C)C)NC(=O)[C@H](CCC(N)=O)NC(=O)[C@H](CO)NC(=O)[C@@H](N)CCCCN)C(C)C)C(=O)N[C@@H](C)C(=O)N[C@@H](CS)C(=O)N[C@@H](Cc1c[nH]cn1)C(=O)N[C@@H](CO)C(=O)N[C@@H](C)C(=O)N[C@@H](C)C(=O)N[C@@H](Cc1ccccc1)C(=O)N[C@@H](CCC(=O)O)C(=O)O` [NP.325], the IC50 was 35 nM against HLA-DRB1*0101, 34 nM against HLA-DRB1*0404 and above 10000 nM against HLA-DRB1*1302.
Take `CC[C@H](C)[C@H](N)C(=O)NCC(=O)N[C@@H](CCCNC(=N)N)C(=O)N[C@@H](Cc1ccccc1)C(=O)N[C@@H](Cc1ccc(O)cc1)C(=O)N[C@H](C(=O)N[C@@H](CCC(N)=O)C(=O)N[C@@H](CCSC)C(=O)N[C@@H](CS)C(=O)N[C@H](C(=O)N[C@@H](CCC(=O)O)C(=O)N[C@@H](CC(C)C)C(=O)N[C@@H](CCCCN)C(=O)N[C@@H](CC(C)C)C(=O)N[C@@H](CO)C(=O)N[C@@H](CC(=O)O)C(=O)N[C@@H](Cc1ccc(O)cc1)C(=O)N[C@@H](CCC(=O)O)C(=O)NCC(=O)O)[C@@H](C)O)[C@@H](C)CC` [NP.36] (H-IGRFYIQMCTELKLSDYEG-OH): the IC50 on HLA-DRB1*0101 came to 31 nM; on HLA-DRB1*0301, 291 nM; on HLA-DRB1*0401, 53 nM; at HLA-DRB1*0404 it was 116 nM; against HLA-DRB1*0405 it was 29 nM; against HLA-DRB1*0701, 443 nM. Besides, the IC50 against HLA-DRB1*0802 amounted to 486 nM; at HLA-DRB1*0901, 193 nM; against HLA-DRB1*1101 it was 236 nM; at HLA-DRB1*1302, 2700 nM; against HLA-DRB1*1501, 23 nM; at HLA-DRB4*0101 it was 210 nM. This molecule showed a half-maximal inhibitory concentration (IC50) against HLA-DRB5*0101 of 28 nM.

A word on the IC50: it is the concentration needed to halve the response being measured.
